According to article PMC2959027, “Expression and function of human hemokinin-1 in human and guinea pig airways” (Respiratory Research, 2010):
No end group written: not given here.

Key:
Format in all cases: cell-based
[1] = test system: human bronchi; test: Effect of NK1, NK2 or NK3 receptor antagonists on peptide-induced contraction of human isolated bronchi; details: phosphoramidon 10^-6 M; for effect of antagonist on contraction by cumulative additions of hHK-1 / response to a single addition of 10^-6 M hHK-1 in the presence of antagonist / effect of antagonist on the response to [Sar^9,Met(O2)^11] SP (10^-6 M), single addition: antagonist 10^-7 M; for effect of antagonist on contraction by cumulative additions of hHK-1: n = 5-12; for response to a single addition of 10^-6 M hHK-1 in the presence of antagonist: % of ACh 3 mM, control 42 ± 4%, not significant, mean ± s.e.m., n = 6-12; for effect of antagonist on the response to [Sar^9,Met(O2)^11] SP (10^-6 M), single addition: n = 6; for effect of the association of SR 140333 and SR 48968 on contraction to a single addition of 10^-6 M hHK-1: both antagonists 10^-7 M together
From the text: (§1) Human bronchial tissues were removed from 47 patients undergoing surgical resection at Foch Hospital (Suresnes, France) or Val d'or Clinic (Saint Cloud, France) for lung cancer (31 men and 16 women; age = 64 ± 9 years). Just after resection, segments of human bronchi with an inner diameter (ID) of 1 to 3 mm were taken as far as possible from the malignant lesion. Male Hartley guinea pigs (Charles River, L'Arbresle, France) weighing 300 to 350 g were sacrificed by cervical dislocation, and tracheas and proximal bronchi were removed. After the removal of adhering lung parenchyma and connective tissues, rings from human bronchi (5-7 mm long, […]) and guinea pig trachea (3 mm long, 3 mm ID) or proximal airways (3 mm long, 1 mm ID) were prepared. 8 to 24 segments of human bronchi were obtained from each patient, whereas 8 trachea segments and 2 to 3 main bronchi segments were obtained from each guinea pig. For RT-PCR analysis, human bronchi were isolated within 1 hour after resection, immediately disrupted and homogenized in TRIzol reagent (Invitrogen) with a Potter Elvehjem homogenizer, and homogenates were kept frozen at -80°C until mRNA extraction. Experiments with human lung tissues were approved by the Regional Ethics Committee for Biomedical Research and animals were used as recommended by animal care guidelines.
(§2) Human bronchial rings and guinea pig tracheal and bronchial rings were suspended on hooks in 5 mL organ bath containing a modified Krebs-Henseleit solution (NaCl 119, KCl 4.7, CaCl2 2.5, KH2PO4 1.2, NaHCO3 25 and glucose 11.7 mM), maintained at 37°C and oxygenated with 95% O2 and 5% CO2. An initial tension of 2 g was applied to tissues, according to previously described protocols. Changes of tension were measured isometrically with Gould strain gauges (UF1; Piodem, Canterburry, Kent, UK); and were recorded and post-processed with IOX and Datanalyst softwares (Emka Technologies France, Paris). During the initial stabilization period (30 min), tissues were washed every 10 minutes with Krebs-Henseleit solution. Phosphoramidon was used to inhibit enzymatic degradation of tachykinins by NEP [21, 40]. Phosphoramidon (10^-6 M) was added in organ bath with or without NK1-, NK2- or NK3-receptor antagonists (SR 140333, SR 48968 and SR 142801, 10^-7 M) after the first stabilization period. Antagonist concentrations were chosen based on their reported affinities for human tachykinin receptors and on their ability to antagonize HK-1-induced responses at similar concentrations in other models. Tissues were then equilibrated 1 hour and concentration-response curves to tachykinins and related peptides were established by applying cumulative concentrations of peptides at 5 to 10 min intervals in semi-logarithmic increments, or by applying a single concentration of peptide. Only one concentration-response curve to tachykinins was recorded in each strip, and each experiment was performed in duplicate. Maximal response was determined by a final addition of acetylcholine hydrochloride (ACh, 3 mM). Contractile responses to tachykinins and related compounds were expressed as percentage of that induced by ACh. The pD2 (defined as the negative log of the molar drug concentration that caused 50% of maximal effect) were calculated from the log concentration-effect curves. When the pD2 value was not assessable (maximal effect (Emax) not reached), it was replaced by the -log EC20 (defined as the negative log of the drug concentration that caused 20% of maximal contraction with ACh). All values in the text and in the figures are expressed as arithmetic mean ± standard error of the mean (s.e.m) of duplicate experiments on tissues from the given (n) number of individuals or animals.

[2] = test system: guinea pig main bronchi; test: Effect of NK1 or NK2 receptor antagonists on hHK-1-induced contraction of guinea pig main bronchi; details: antagonist 10^-7 M; cumulative additions of hHK-1; phosphoramidon 10^-6 M; n = 5-7
From the text: (§3) Human bronchial tissues were removed from 47 patients undergoing surgical resection at Foch Hospital (Suresnes, France) or Val d'or Clinic (Saint Cloud, France) for lung cancer (31 men and 16 women; age = 64 ± 9 years). Just after resection, segments of human bronchi with an inner diameter (ID) of 1 to 3 mm were taken as far as possible from the malignant lesion. Male Hartley guinea pigs (Charles River, L'Arbresle, France) weighing 300 to 350 g were sacrificed by cervical dislocation, and tracheas and proximal bronchi were removed. […]
(§4) Human bronchial rings and guinea pig tracheal and bronchial rings were suspended on hooks in 5 mL organ bath containing a modified Krebs-Henseleit solution (NaCl 119, KCl 4.7, CaCl2 2.5, KH2PO4 1.2, NaHCO3 25 and glucose 11.7 mM), maintained at 37°C and oxygenated with 95% O2 and 5% CO2. […] Changes of tension were measured isometrically with Gould strain gauges (UF1; Piodem, Canterburry, Kent, UK); and were recorded and post-processed with IOX and Datanalyst softwares (Emka Technologies France, Paris). […] Only one concentration-response curve to tachykinins was recorded in each strip, and each experiment was performed in duplicate. Maximal response was determined by a final addition of acetylcholine hydrochloride (ACh, 3 mM). Contractile responses to tachykinins and related compounds were expressed as percentage of that induced by ACh. […]

[3] = test system: guinea-pig trachea; test: Effect of NK1 or NK2 receptor antagonists on hHK-1-induced contraction of guinea pig trachea; details: for effect of antagonist on contractions induced by hHK-1, guinea-pig trachea: antagonist 10^-7 M, cumulative additions of hHK-1, phosphoramidon 10^-6 M
From the text: as §3, with “removed. After the removal of adhering lung parenchyma and connective tissues, rings from human bronchi (5-7 mm long, […]) and guinea pig trachea (3 mm long, 3 mm ID) or proximal airways (3 mm long, 1 mm ID) were prepared. 8 to 24 segments of human bronchi were obtained from each patient, whereas 8 trachea segments and 2 to 3 main bronchi segments were obtained from each guinea pig.” for “removed.”
as §4, with “ACh. The pD2 (defined as the negative log of the molar drug concentration that caused 50% of maximal effect) were calculated from the log concentration-effect curves.” for “ACh.”

[4] = test system: guinea-pig trachea; test: Contraction of guinea pig trachea by tachykinin peptides (organ bath); details: cumulative additions, phosphoramidon 10^-6 M; for Emax (% of Ach 3 mM) / pD2: guinea-pig trachea, mean ± s.e.m. for n determinations (n = 6-12); for contractile effect on guinea-pig trachea: EKA/B 10^-8 M-10^-6 M
From the text: as §1, §2

[5] = test system: human bronchi; test: Contraction of human isolated bronchi by tachykinin peptides (organ bath, isometric tension); details: phosphoramidon 10^-6 M
From the text: as §1, §2

[6] = test system: human bronchi; test: Cross-desensitization of NK1 receptors after consecutive applications of hHK-1 and [Sar^9,Met(O2)^11] SP on human bronchi; details: phosphoramidon 10^-6 M, n = 5
Protocol: as §2

[7] = test system: guinea pig main bronchi; test: Contraction of guinea pig main bronchi by tachykinin peptides (organ bath); details: cumulative additions; phosphoramidon 10^-6 M; n = 6-7
From the text: as §3, §4

[8] = 10^-7 M, % of ACh 3 mM, mean ± s.e.m.

`CC(=O)N(C)C1(c2ccccc2)CCN(CCCC2(c3ccc(Cl)c(Cl)c3)CCCN(C(=O)c3ccccc3)C2)CC1` (stereo in doubt) [SR 142801, (S)-(N)-(1-(3-(1-benzoyl-3-(3,4-dichlorophenyl)piperidin-3-yl)propyl)-4-phenylpiperidin-4-yl)-N-methylacetamide] was tested, and the “effect of antagonist on contraction by cumulative additions of hHK-1” value (shortened to “effect of antagonist on contraction … of hHK-1”) [1] was “did not alter”.
In the case of `CC(=O)NC1(c2ccccc2)CCN(CC[C@H](CN(C)C(=O)c2ccccc2)c2ccc(Cl)c(Cl)c2)CC1` [SR 48968, (S)-N-methyl-N-[4-acetylamino-4-phenylpiperidino-2-(3,4-dichlorophenyl)butyl]benzamide], the “effect of antagonist on contractions induced by hHK-1, guinea pig main bronchi” value [2] is reported as “altered to a lesser extent”, the “effect of antagonist on contractions induced by hHK-1, guinea-pig trachea” value [3] is reported as “altered to a lesser extent” and the “response to a single addition of 10^-6 M hHK-1 in the presence of antagonist” value [1] is reported as 31 ± 4%. The “effect of antagonist on contraction … of hHK-1” value [1] was “completely abolished”, the “effect of antagonist on the response to [Sar^9,Met(O2)^11] SP (10^-6 M), single addition” value [1] was “unmodified” and the “effect of the association of SR 140333 and SR 48968 on contraction to a single addition of 10^-6 M hHK-1” value [1] was “abolished the smooth muscle contraction”.
For “[Sar^9,Met(O2)^11] substance P [[Sar^9,Met(O2)^11] SP]”, the “Emax (% of Ach 3 mM)” value [4] was 76 ± 2 % of Ach 3 mM, the pD2 [4] was 7.5 ± 0.1 and the “Emax, cumulative additions in the presence of SR 48968” value ([5]; NK2 antagonist SR 48968 10^-7 M, inverted U-shaped curve, % of ACh 3 mM, mean ± s.e.m.) was 13 ± 3%. The “pD2, single additions in the presence of SR 48968” value ([5]; NK2 antagonist SR 48968 10^-7 M, non cumulative additions, mean ± s.e.m., hHK-1 n = 5-7, [Sar^9,Met(O2)^11] SP n = 10) was 8.0 ± 0.4, the “maximal contraction, single additions in the presence of SR 48968” value ([5]; NK2 antagonist SR 48968 10^-7 M, non cumulative additions, sigmoid curve, % of ACh 3 mM, mean ± s.e.m., hHK-1 n = 5-7, [Sar^9,Met(O2)^11] SP n = 10) was 26 ± 7% and the “contraction, first addition of [Sar^9,Met(O2)^11] SP (followed by a second addition of the same peptide)” value [6, 8] was 33 ± 7%. For the same compound, the “contraction, initial addition of [Sar^9,Met(O2)^11] SP (followed by hHK-1)” value [6, 8] was 32 ± 7%, the “contraction, second addition of [Sar^9,Met(O2)^11] SP after a first addition of [Sar^9,Met(O2)^11] SP” value ([6]; 10^-7 M, % of ACh 3 mM, mean ± s.e.m., p < 0.01 vs first) was 4 ± 1% and the “response to [Sar^9,Met(O2)^11] SP after a first addition of hHK-1” value ([6]; [Sar^9,Met(O2)^11] SP 10^-7 M after hHK-1 3.10^-7 M) was “abolished”.
With [β-Ala^8]-NKA (4-10) the “Emax (% of Ach 3 mM)” value [4] was 80 ± 5 % of Ach 3 mM and the pD2 [4] was 8.3 ± 0.6.
“endokinin C (KKAYQLEHTFQGLL; ends and bridges not checked; UniProt Q86UU9 82-95, looked up) [EKC, peptide derived from TAC4, custom synthesized]” was tested, and the “contractile effect on guinea-pig trachea” value [4] was “without effect” and the “contractile activity on human isolated bronchi” value ([5]; cumulative additions, n = 3) was “devoid of any contractile activity”.
In the case of `CC(C)Oc1cccc(CC(=O)N2CCC[C@](CC[N+]34CCC(c5ccccc5)(CC3)CC4)(c3ccc(Cl)c(Cl)c3)C2)c1.[Cl-]` [SR 140333, (S)1-(2-[3-(3,4-dichlorophenyl)-1-(3-isopropoxyphenylacetyl)piperidin-3-yl]ethyl)-4-phenyl-1-azoniabicyclo [2.2.2]octane chloride], the “effect of antagonist on contractions induced by hHK-1, guinea pig main bronchi” value [2] is reported as “abolished”, the “effect on maximal contractions induced by hHK-1, guinea-pig trachea” value ([3]; SR 140333 10^-9 to 10^-7 M, n = 4-11, suggesting non competitive antagonism) is reported as “reduced maximal contractions” and the “effect of antagonist on contractions induced by hHK-1, guinea-pig trachea” value [3] is reported as “abolished”. For the same compound, the “response to a single addition of 10^-6 M hHK-1 in the presence of antagonist” value [1] was 31 ± 5%, the “effect of antagonist on contraction … of hHK-1” value [1] was “small but not statistically significant reduction” and the “effect of antagonist on the response to [Sar^9,Met(O2)^11] SP (10^-6 M), single addition” value [1] was “specifically abolished”. The “effect of the association of SR 140333 and SR 48968 on contraction to a single addition of 10^-6 M hHK-1” value [1] was “abolished the smooth muscle contraction”.
In the case of endokinin A/B [EKA/B], the “-log EC20” value ([5]; negative log of concentration causing 20% of maximal contraction with ACh, cumulative additions, mean ± s.e.m., n = 3) is reported as 7.2 ± 0.3 and the “potency on guinea-pig isolated bronchi compared with SP and [Sar^9,Met(O2)^11] SP” value [7] is reported as “less potent”.
endokinin D [EKD] was tested, and the “contractile effect on guinea-pig trachea” value [4] was “without effect” and the “contractile activity on human isolated bronchi” value ([5]; cumulative additions, n = 3) was “devoid of any contractile activity”.
